Entries after “also recorded” stand apart in the source; their conditions may differ.

From US8241647B2, “Amphiphilic molecule, molecular assembly comprising the amphiphilic molecule, and use of the molecular assembly” (Waseda University, priority 2007, dated 2012) come the findings set out here.

Data set [1] is described as follows: Degree of fusion with anionic liposome (Example 9). As to conditions: liposome compound/cholesterol/PEG-Glu2C18, 37°C, 30 minutes. The method, then: In a manner similar to that in Example 2, the degree of fusion of the pH-responsive liposome with respect to the anionic liposome (DOPC/DPPG, 5/1 (molar ratio)) was calculated. The measurement method was as follows. 50 μL of 1 mM anionic liposome and 50 μL of 9 mM (converted to the mixed lipid basis) pH-responsive liposome were added to 1.9 mL of each of acetate buffers with different pHs and allowed to stand at 37° C. 30 minutes later, […] of the mixture was dividedly poured and added to 1.9 mL of HEPES buffer (pH 7.4). The resultant mixture was transferred to a quartz cell and subjected to fluorescence measurement (λex: 460 nm, 530 nm). The measurement was carried out using RF-5300PC manufactured by Shimadzu.

Data set [2] is described as follows: Concentration of Compound 3 in rat tissue 24 hours after i.v. liposome (LC/MS/MS). It is filed as in vivo. Particulars: for concentration at 24 h: male, SD, rat, iv, 24 hours after i.v. liposome. The method, then:
A pH-responsive liposome was prepared from mixed lipid (Compound (3)/cholesterol/PEG-Glu2C18=5/5/0.03 (mol)) using the high-pressure extrusion method. In the preparation, the particle size of the liposome was adjusted to 200 to 250 nm. Further, BSA was encapsulated in the internal aqueous phase. The prepared pH-responsive liposome ([Lipid]=20 mg/mL) was intravenously administered to a SD rat (male, body weight of 300 g or less) via the tail vein in an amount of 2 ml/kg under ether anesthesia. The number of rats used was N=3. Prior to the administration and 5 minutes, 1, 2, 6 and 24 hours after the administration, blood was collected (about 500 μL). The obtained blood was subjected to centrifugation (2,000×g, 20 minutes) to obtain plasma (liposome-suspended plasma), and this was preserved at −80° C. Further, after blood was collected 24 hours after the administration, the liver, spleen, lung and kidney were isolated, the wet weight thereof was measured, and these materials were preserved at −80° C. After that, homogenization was carried out using a saline in an amount 4 times greater than the wet weight of the organs.
A material in which the procedure is carried out until 100 μL of methanol is added to 10 μL of homogenate solution of plasma and the organs was used as a sample for measurement of specimen.
To the above-described sample for measurement, a solution to which an internal standard material (1,5-dihexadecyl N-glutamyl-L-glutamate (αGlu-Glu2C16)) was added (900 μL) was added, and the mixture was subjected to vortex stirring. After that, the mixture was allowed to stand at room temperature for at least 10 minutes. After that, the mixture was subjected to vortex stirring again and centrifuged at 4° C. at 10,000×g for 15 minutes. The obtained supernatant was transferred to an LC vial.
An analyte for producing a calibration curve for measurement of tissue was measured, and a calibration curve of 1-100 μg/ml was prepared with weighting of 1/x^2 and Quadratic. The peak area of the analyte for measurement of tissue/IS peak area was substituted into the obtained formula of the calibration curve to calculate the concentration of Compound 3 in tissue (in the calculation, the specific gravity of the tissue homogenate was regarded as 1 g/mL). FIG. 9 is a graph showing the results.

Data set [3] in a line: Measurement of zeta potential of liposomes. It is filed as physicochemical. As to conditions: 37°C. How it is done: Portions of the prepared liposome ([lipid]=10 mg/ml) were respectively added to acetate buffers with different pHs (7.4, 7, 6, 5, 4) (30 mM) to the final concentration of [lipid]=1 mg/mL, and then the zeta potential at 37° C. was measured. Zetasizer 4 manufactured by Malvern was used. A capillary cell was filled with a liposome-dispersed liquid obtained by dilution to the measurement concentration, and the measurement was performed at 37° C. 3 times.
Portions of the prepared liposome ([lipid]=10 mg/ml) were respectively added to acetate buffers with different pHs (7.4, 7, 6, 5, 4) (20 mM) to the final concentration of [lipid]=1 mg/mL, and then the zeta potential at 37° C. was measured.
Portions of each of the prepared liposomes ([lipid]=10 mg/ml) were respectively added to acetate buffers with different pHs (7.4, 7, 6, 5, 4) (20 mM) to the final concentration of [lipid]=1 mg/mL, and then the zeta potential at 37° C. was measured.

For the molecule `CCCCCCCCCCCCCCCCOC(=O)CCC(NC(=O)C(CCCCNC(=O)C(N)CCC(=O)O)NC(=O)C(N)CCC(=O)O)C(=O)OCCCCCCCCCCCCCCCC` (stereo not drawn) [Compound 3], the degree of fusion result is on record as “about 60%” in data set [1] (pH 5.5 (maximum)) and “about 15%” in data set [1] (pH 7.4). In addition, the “distribution of Compound 3 in the organs” value in data set [2] (SD rat, 24 hours after the administration of pH-responsive liposome) was “mainly localized in the liver and spleen; also recorded: Almost no Compound 3 was localized in the kidney and lung”. Further, the concentration at 24 h in data set [2] (liver, Liver, Average value) came to 76800 ng/g; in data set [2] (liver, Liver, animal 1) it was 110000 ng/g; in data set [2] (liver, Liver, animal 2), 64400 ng/g; in data set [2] (liver, Liver, animal 3) it was 55600 ng/g; in data set [2] (lung, Lung, Average value) it was 5600 ng/g; in data set [2] (lung, Lung, animal 1), 5600 ng/g. In addition, the concentration at 24 h in data set [2] (lung, Lung, animal 2) is 5020 ng/g; in data set [2] (lung, Lung, animal 3), 6170 ng/g; in data set [2] (spleen, Spleen, Average value), 33500 ng/g; in data set [2] (spleen, Spleen, animal 1) it was 30400 ng/g; in data set [2] (spleen, Spleen, animal 2), 33400 ng/g; in data set [2] (spleen, Spleen, animal 3), 36700 ng/g. In addition, the “zeta potential of the liposome” value in data set [3] (liposome Compound 3/cholesterol/PEG-Glu2C18 (5/5/0.03), pH 7.4) is “negative”. The “zeta potential as pH was decreased” value in data set [3] (liposome Compound 3/cholesterol/PEG-Glu2C18 (5/5/0.03 molar ratio), acetate buffers pH 7.4-4 (30 mM)) is listed as “changed from negative to positive”. In data set [3] (liposome compound/cholesterol/PEG-Glu2C18 (5/5/0.03 molar ratio), acetate buffers 20 mM), the “pH at which the zeta potential changed from negative to positive” value is “about 5.7”.
